Test results from ChEMBL document CHEMBL1201862, “PubChem BioAssay data set” (2004).
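Grown in 96-well plates, cells were treated for 48 hours with each compound at five concentrations. Insufficient inhibition: endpoint recorded as highest concentration tested. GI50 is the concentration that inhibits growth by half.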 Active and inactive are the calls of the source. No stated cut-off is given here; in the data, active = GI50 up to about 1.1 µM and inactive = higher.

How the values were obtained:
Test in all cases: DTP human tumour cell line panel, 48 h
[1] = tested on: A549
[2] = tested on: MDA-MB-231
[3] = tested on: U-251
[4] = tested on: IGROV-1
[5] = tested on: RXF 393
[6] = tested on: MDA-N
[7] = tested on: HCT-15
[8] = tested on: HCC 2998
[9] = tested on: EKVX
[10] = tested on: ACHN
[11] = tested on: NCI-H460
[12] = tested on: HOP-92
[13] = tested on: MCF7
[14] = tested on: 786-0
[15] = tested on: LOX IMVI
[16] = tested on: MOLT-4
[17] = tested on: KM12
[18] = tested on: HOP-62
[19] = tested on: OVCAR-5
[20] = tested on: K562
[21] = tested on: M14
[22] = tested on: SK-MEL-5
[23] = tested on: OVCAR-3
[24] = tested on: TK-10
[25] = tested on: PC-3
[26] = tested on: UO-31
[27] = tested on: MDA-MB-435
[28] = tested on: Hs-578T
[29] = tested on: OVCAR-8
[30] = tested on: SF-295
[31] = tested on: SNB-19
[32] = tested on: SK-OV-3
[33] = tested on: A498
[34] = tested on: HL-60
[35] = tested on: HCT-116
[36] = tested on: CAKI-1
[37] = tested on: SR
[38] = tested on: UACC-62
[39] = tested on: SN12C
[40] = tested on: NCI-H23
[41] = tested on: OVCAR-4
[42] = tested on: COLO 205
[43] = tested on: SK-MEL-2
[44] = tested on: SF-268
[45] = tested on: CCRF-CEM
[46] = tested on: DU-145
[47] = tested on: BT-549
[48] = tested on: RPMI-8226
[49] = tested on: SW-620
[50] = tested on: T47D
[51] = tested on: SNB-75
[52] = tested on: HT-29
[53] = tested on: NCI-H226
[54] = tested on: SF-539
[55] = tested on: NCI/ADR-RES
[56] = tested on: UACC-257
[57] = tested on: SK-MEL-28
[58] = tested on: NCI-H522
[59] = tested on: Malme-3M

CCOc1ccccc1/N=C\c1c2ccccc2cc2ccccc12
GI50 [1]: 26.4 µM (inactive)
GI50 [2]: 27.2 µM (inactive)
GI50 [3]: 20.4 µM (inactive)
GI50 [4]: 22.8 µM (inactive)
GI50 [5]: 15.7 µM (inactive)
GI50 [6]: 21.9 µM (inactive)
GI50 [7]: 24.4 µM
GI50 [8]: 18.5 µM (inactive)
GI50 [9]: 18.1 µM (inactive)
GI50 [10]: 29 µM (inactive)
GI50 [11]: 29.9 µM (inactive)
GI50 [12]: 21 µM (inactive)
GI50 [13]: 29.4 µM (inactive)
GI50 [14]: 18.8 µM (inactive)
GI50 [15]: 19.1 µM (inactive)
GI50 [16]: 11.6 µM (inactive)
GI50 [17]: 15.1 µM (inactive)
GI50 [18]: 26.1 µM (inactive)
GI50 [19]: 25.8 µM (inactive)
GI50 [20]: 17.3 µM (inactive)
GI50 [21]: 20.3 µM (inactive)
GI50 [22]: 25.6 µM (inactive)
GI50 [23]: 24.7 µM (inactive)
GI50 [24]: 25 µM (inactive)
GI50 [25]: 23.3 µM (inactive)
GI50 [26]: 18.6 µM (inactive)
GI50 [27]: 22.7 µM (inactive)
GI50 [28]: 15.3 µM (inactive)
GI50 [29]: 23.8 µM (inactive)
GI50 [30]: 30 µM (inactive)
GI50 [31]: 26.4 µM (inactive)
GI50 [32]: 22.3 µM (inactive)
GI50 [33]: 27 µM (inactive)
GI50 [34]: 16 µM (inactive)
GI50 [35]: 18.4 µM (inactive)
GI50 [36]: 24.2 µM (inactive)
GI50 [37]: 15.2 µM (inactive)
GI50 [38]: 38.5 µM (inactive)
GI50 [39]: 22.4 µM (inactive)
GI50 [40]: 17.3 µM (inactive)
GI50 [41]: 24.3 µM (inactive)
GI50 [42]: 32.3 µM (inactive)
GI50 [43]: 22.1 µM (inactive)
GI50 [44]: 21.2 µM (inactive)
GI50 [45]: 9.29 µM (inactive)
GI50 [46]: 22.1 µM (inactive)
GI50 [47]: 28.2 µM (inactive)
GI50 [48]: 15.5 µM (inactive)
GI50 [49]: 24.5 µM (inactive)
GI50 [50]: 18.9 µM (inactive)
GI50 [51]: 19.5 µM (inactive)
GI50 [52]: 21.6 µM (inactive)
GI50 [53]: 46.5 µM (inactive)
GI50 [54]: 23.8 µM (inactive)
GI50 [55]: 23.1 µM (inactive)
GI50 [56]: 31.1 µM (inactive)
GI50 [57]: 26.2 µM (inactive)

CCOC(=O)CCC(NC(=O)OCc1ccccc1)C(=O)NNC(=O)OC(C)(C)C (stereo not given)
GI50 [1]: > 100 µM (inactive)
GI50 [2]: 41.7 µM (inactive)
GI50 [58]: > 100 µM (inactive)
GI50 [3]: > 100 µM (inactive)
GI50 [4]: > 100 µM (inactive)
GI50 [5]: > 100 µM (inactive)
GI50 [6]: > 100 µM (inactive)
GI50 [7]: > 100 µM
GI50 [8]: > 100 µM (inactive)
GI50 [9]: > 100 µM (inactive)
GI50 [10]: > 100 µM (inactive)
GI50 [11]: > 100 µM (inactive)
GI50 [12]: > 100 µM (inactive)
GI50 [13]: > 100 µM (inactive)
GI50 [14]: > 100 µM (inactive)
GI50 [15]: > 100 µM (inactive)
GI50 [16]: > 100 µM (inactive)
GI50 [17]: > 100 µM (inactive)
GI50 [18]: > 100 µM (inactive)
GI50 [19]: > 100 µM (inactive)
GI50 [20]: > 100 µM (inactive)
GI50 [21]: > 100 µM (inactive)
GI50 [22]: > 100 µM (inactive)
GI50 [23]: > 100 µM (inactive)
GI50 [24]: > 100 µM (inactive)
GI50 [25]: > 100 µM (inactive)
GI50 [26]: > 100 µM (inactive)
GI50 [27]: > 100 µM (inactive)
GI50 [28]: > 100 µM (inactive)
GI50 [29]: > 100 µM (inactive)
GI50 [30]: > 100 µM (inactive)
GI50 [31]: > 100 µM (inactive)
GI50 [32]: > 100 µM (inactive)
GI50 [33]: > 100 µM (inactive)
GI50 [34]: > 100 µM (inactive)
GI50 [35]: > 100 µM (inactive)
GI50 [36]: > 100 µM (inactive)
GI50 [37]: > 100 µM (inactive)
GI50 [38]: > 100 µM (inactive)
GI50 [39]: > 100 µM (inactive)
GI50 [40]: > 100 µM (inactive)
GI50 [41]: > 100 µM (inactive)
GI50 [42]: > 100 µM (inactive)
GI50 [59]: > 100 µM (inactive)
GI50 [43]: > 100 µM (inactive)
GI50 [44]: > 100 µM (inactive)
GI50 [45]: > 100 µM (inactive)
GI50 [46]: > 100 µM (inactive)
GI50 [47]: > 100 µM (inactive)
GI50 [48]: > 100 µM (inactive)
GI50 [49]: > 100 µM (inactive)
GI50 [50]: > 100 µM (inactive)
GI50 [51]: > 100 µM (inactive)
GI50 [52]: > 100 µM (inactive)
GI50 [54]: > 100 µM (inactive)
GI50 [55]: > 100 µM (inactive)
GI50 [56]: > 100 µM (inactive)
GI50 [57]: > 100 µM (inactive)
